Consider one molecule from patent EP2433624B1, “Use of buparvaquone for controlling mites parasitising honeybees” (Bimeda International Pharmaceuticals Limited, priority 2010, dated 2012).

One data set relates to mammals. Conditions: dosages many thousands of times higher than those in the invention; cited from earlier work.
Data set [1] has as its system Varroa mites. Nature of the data set: Efficacy of BPQ B against Varroa mites on honeybees sprayed with an aqueous solution. The class given is in vivo. The note with it: summary statement. The protocol:
Example 7 - Toxicity of BPQ B to Varroa mites on honeybees when sprayed with an aqueous solution of the active ingredient
To estimate the percentage efficacy of BPQ B at different concentrations when sprayed as an aqueous solution onto adult bees
A total of 20 newly emerged Varroa infested bees were placed in hoarding cages. The cages were prepared as described in Section 1.0, except that the air vents were reduced in size using parafilm to prevent the Varroa mites escaping during the test period. The mean(±se) number of mites per 20 bees was estimated prior to commencement and an additional 10 mites per cage were added. Mites were collected and introduced as described above. The treatment solution was made by dissolving BPQ B in solvent, followed by two aqueous serial dilutions producing a concentration of 500µg/mL and 5µg/mL. From the latter, further serial dilutions were carried in water producing the following concentrations: • 0.5µg/mL. (C1-C3) • 0.05µg/mL. (D1-D3) • 0.005µg/mL. (E1-E3) • 0.0005µg/mL. (F1-F3) • 0.00005µg/mL (G1-G3)
Three replicates were established at each concentration plus a control group which were sprayed with water only. All test groups were fed 10mL of 1:1 sucrose:water solution and placed in the incubator at 32°C and monitored on a daily basis for the number of mites and number of bees knocked down. At the end of five day treatment period, the percentage efficacy of the treatment was estimated by treating bees in all cages with Apistan. % efficacy = mites knocked from treatment/total mites (treatment+Apistan)*100 [formula]

Data set [2] deals with adult honeybees (Apis mellifera). Nature of the data set: Toxicity of BPQ A to honeybees when fed in a sugar syrup solution (hoarding cages, 16 days). The class given is in vivo. Conditions: summary statement over all the studies. How it is done:
We have assessed the toxicity of BPQ to adult honeybees (Apis mellifera) using the 50 mg/mL liquid solution, BPQ A, under laboratory conditions
Example 1 - Toxicity of BPQ A to honeybees when fed in a sugar syrup solution (50mL liquid at a concentration of 50mg BPQ/mL)
Hoarding cages consisted of plastic tumblers (600mL) with an opening diameter of 84mm. The tumblers were paired with standard plastic petri-dishes and glass scintillation vials. To allow sufficient ventilation, 33 holes, approximately 3mm in diameter were made in the sides of each tumbler, in addition to two 30mm x 30mm holes fitted with nylon mesh. A circular hole was cut out of the bottom of the cup, which produced an opening large enough to allow a lidded scintillation vial to pass through the hole. Two holes were drilled into the lids of the scintillation vials with a 1mm bit and these vials were filled a 1:1 sugar solution, together with different concentrations of the solvent and product. […]
Three replicates were analysed at each concentration of BPQ A and solvent as outlined below, together with a control group which were only fed sugar and water throughout the experimental period.
Bees were maintained for 16 days at 32°C. Bees were fed additional food as required throughout the experimental period and the general behaviour and survival of the test bees were recorded on a daily basis. […]

The subject of data set [3] is Varroa mites. The data set is described as follows: Efficacy of BPQ B against Varroa mites on honeybees fed treated sucrose solution. In kind it is in vivo. The note with it: summary statement. The protocol:
Example 6 - Toxicity of BPQ B to Varroa mites on honeybees when fed treated sucrose solution
To estimate the percentage efficacy of BPQ at different concentrations in sucrose solution
A total of 20 newly emerged Varroa infested bees were placed in hoarding cages. The cages were prepared as described in Section 1.0, except that the air vents were reduced in size using parafilm to prevent the Varroa mites escaping during the test period. The mean(±se) number of mites per 20 bees was estimated prior to commencement of the experiment and an additional 5 mites per cage were added. (mean±se = 10.6±0.33). This was carried out by collecting adult female mite from drone pupae, placing them in an eppendorf tube and then releasing them into the cages.
The treatment solution was made by dissolving BPQ B in solvent, followed by two aqueous serial dilutions producing a concentration of 500µg/mL and 5 µg/mL. From the latter, further serial dilutions were carried with sucrose solution producing the following concentrations: • 0.5µg/mL. (C1-C3) • 0.05µg/mL. (D1-D3) • 0.005µg/mL. (E1-E3) • 0.0005µg/mL. (F1-F3) • 0.00005µg/mL (G1-G3)
Three replicates were established at each concentration plus a control group which were only fed sugar syrup. All cages were placed in the incubator at 32°C and monitored on a daily basis for the number of mites and number of bees knocked down. At the end of five day treatment period, the percentage efficacy of the treatment was estimated by treating bees in all cages with Apistan (Trade Mark of Vita (Europe) Ltd. Apistan contains fluvalinate which is a synthetic pyrethroid. % efficacy = mites knocked from treatment/total mites (treatment+Apistan)*100 [formula]

The next data set has as its system honeybee larvae. The data set is described as follows: Toxicity of BPQ A in an aqueous solution when sprayed on honeybee larvae. The class given is in vivo, Apis mellifera. Conditions: summary statement. The protocol: Example 3 - Toxicity of BPQ A in an aqueous solution when sprayed on honeybee larvae (50mL liquid at a concentration of 50mg/mL - BPQ A)
To spray eggs/larvae with different concentrations of the active ingredient/solvent and examine the effect on development of the young larvae
Eggs/larvae of similar age were attained by placing the queen bee in a frame cage for 36 hrs. Once the frame was laid up, the queen was released and the frame was replaced in the colony for 3 days. The frame cage allowed worker bees to attend the larvae, but prevented the queen from laying in the frame. On day 3/4, when the eggs were changing to larvae, the frame was removed and divided temporarily in 6 x 5cm strips at either side using grease proof paper to facilitate the assessment of product and solvent. Within each strip, three 3.5cm x 2.5cm squares (approximately 30 cells) of grease proof paper was removed and the developing larvae sprayed with BPQ A/solvent at the concentrations described above.

Take `CC(C)(C)[C@H]1CC[C@H](CC2=C(O)C(=O)c3ccccc3C2=O)CC1` [BPQ, buparvaquone]: the neurotoxic effect result in the data set on mammals is “no neurotoxic effect whatsoever”. Also, the “effective, topical application” value in the data set on Varroa mites [1] is about 40%. For the same molecule, in data set [2], the “harm to adult bees and larvae” value is reported as “harmless”. Besides, the “effective, application via bee feed route” value in the data set on Varroa mites [3] is given as 82%. Besides, in the data set with honeybee larvae, the “toxicity to bee larvae” value is “non-toxic”.
